In patent US11667675B2, “MASP inhibitory compounds and uses thereof” (Bayer Aktiengesellschaft, priority 2019, dated 2023) one finds IC50 data, which are given here for seven compounds.

Molecules are shown by their SMILES. Counter-ions that a name gives are not always drawn. Numbered stars: 1 amine (or outer) side, 2 acyl side, 3 side chain; on linkers, the order of the positions; unused ones are H or OH. Bridge positions count the residues as written; N and C are the ends. Square brackets hold non-standard residues; d marks the D form. Peptide text beside a SMILES is read from it. * marks the point of attachment. X1 = O=C(C1[C@H]2CCCC[C@H]2C[C@H]1C(=O)[*:2])[C@@H]1CCCN1[*:1]; Oic = O=C(O)[C@@H]1C[C@@H]2CCCC[C@@H]2N1; Pen = CC(C)(S)[C@H](N)C(=O)O; X2 = N[C@@H](CN*)C(=O)O; Sar = CNCC(=O)O

The target of one experiment is T1, human MASP1 (Homo sapiens, UniProt P48740).
T1 construct: Ig-kappa secretion signal (N, cleaved yes); made in house; host or cells: HEK293 (ATCC No. CRL-1573)
T1 sequence (P48740 297-448): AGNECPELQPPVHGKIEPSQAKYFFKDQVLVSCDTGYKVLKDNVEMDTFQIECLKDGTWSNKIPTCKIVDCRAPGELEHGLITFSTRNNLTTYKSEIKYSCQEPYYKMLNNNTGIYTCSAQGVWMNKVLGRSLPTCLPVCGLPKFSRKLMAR
T1 sequence (P48740 449-699): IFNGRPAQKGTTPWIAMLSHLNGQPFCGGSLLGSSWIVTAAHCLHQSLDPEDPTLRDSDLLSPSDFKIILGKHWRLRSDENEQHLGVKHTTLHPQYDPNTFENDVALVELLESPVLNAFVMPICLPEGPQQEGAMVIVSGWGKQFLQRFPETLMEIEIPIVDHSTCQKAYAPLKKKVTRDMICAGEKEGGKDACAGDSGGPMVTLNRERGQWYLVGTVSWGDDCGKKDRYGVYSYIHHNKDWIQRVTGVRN
Description: Biochemical human MASP1 assay (FRET substrate). The settings on record: average IC50. The text has this: (§1) 2.1 Recombinant Expression and Protein Production of Recombinant Human MASP1 and MASP2 Active Proteases.
(§2) The MASP1 or MASP2 expression vectors were transfected into the HEK293 (ATCC No. CRL-1573) cell line using Lipofectamine LTX® Reagent (Thermo-Fischer), as described by the manufacturer. […] The MASP1 and MASP2 proteins were purified from the conditioned media by affinity chromatography on Ni-NTA Superflow resin (Qiagen) as described by the manufacturer.
2.2 Biochemical Human MASP1 Assay
(§3) Recombinant human MASP1 enzyme produced in the HEK 293 cells was diluted in the reaction buffer (50 mM HEPES pH 8,0; 100 mM NaCl; 0.01% CHAPS; 0.5 mM Gluthathione) to the concentration of 20 nM and 25 μl was transferred into each single well of 384-well white microtiter plate (Greiner Bio One 781075). 1 μl of the inhibitor compound solution (dissolved in DMSO, at the corresponding concentration) or pure DMSO as a control was added to the same wells. […] The microtiter plate was incubated for 60-120 min at the temperature of 32 C. The increase of fluorescence intensity was measured in appropriate fluorescence plate reader (e.g. TECAN Ultra) using excitation wavelength of 320 nm and emission wavelength of 420 nm. IC50 values were calculated from percentage of inhibition of human MASP1 activity as a function of test compound concentration.

The next experiment has as its target T2, rat MASP1 (Rattus norvegicus, UniProt Q8CHN8).
T2 construct: Ig-kappa secretion signal (N, cleaved yes); made in house; host or cells: HEK293 (ATCC No. CRL-1573)
T2 sequence (Q8CHN8 302-453 limits assumed): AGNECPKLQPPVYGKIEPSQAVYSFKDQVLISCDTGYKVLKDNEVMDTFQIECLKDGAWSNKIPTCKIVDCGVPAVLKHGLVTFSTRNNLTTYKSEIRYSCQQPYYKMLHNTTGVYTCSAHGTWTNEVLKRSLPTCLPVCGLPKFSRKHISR
T2 sequence (Q8CHN8 454-704 limits assumed): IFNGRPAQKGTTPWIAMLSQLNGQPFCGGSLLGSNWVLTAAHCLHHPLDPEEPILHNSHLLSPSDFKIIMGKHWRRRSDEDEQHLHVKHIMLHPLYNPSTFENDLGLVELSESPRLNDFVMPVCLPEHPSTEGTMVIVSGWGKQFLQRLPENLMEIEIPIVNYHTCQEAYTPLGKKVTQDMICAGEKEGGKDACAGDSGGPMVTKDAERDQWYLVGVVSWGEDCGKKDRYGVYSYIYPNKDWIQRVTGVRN
Kind of experiment: Biochemical rat MASP1 assay (FRET substrate). The conditions noted are these: average IC50; recombinant rat MASP1, FRET substrate. The text has this: 4. Biochemical Rat MASP-1 and MASP-2 Assay
4.1 Recombinant Expression and Protein Production of Recombinant Human and Rat MASP1 and MASP2 Active Proteases.
A truncated cDNA sequence of rat MASP1 encoding the fragment corresponding to the amino acids 302-704 with an C-terminal His Tag and N-terminal Ig-kappa secretion signal (SEQ ID No: 4) was subcloned into the mammalian expression vector pcDNA3.1 (Invitrogen).
The MASP1 or MASP2 expression vectors were transfected into the HEK293 (ATCC No. CRL-1573) cell line using Lipofectamine LTX® Reagent (Thermo-Fischer), as described by the manufacturer. The mature form of the recombinant rat MASP1 and MASP2 proteases were secreted into the culture medium. The MASP1 and MASP2 proteins were purified from the conditioned media by affinity chromatography on Ni-NTA Superflow resin (Qiagen) as described by the manufacturer.
4.2 Biochemical Rat MASP1 Assay.
Recombinant rat MASP1 enzyme produced in the HEK 293 cells was diluted in the reaction buffer (50 mM HEPES pH 8,0; 100 mM NaCl; 0.01% CHAPS; 0.5 mM Gluthathione) to the concentration of 4 nM and 25 μl was transferred into each single well of 384-well white microtiter plate (Greiner Bio One 781075). 1 μl of the inhibitor compound solution (dissolved in DMSO, at the corresponding concentration) or pure DMSO as a control was added to the same wells. The enzymatic reaction was initiated by addition of 25 μl of 40 μM solution of the FRET substrate Dabcyl-[…]-Glu(Edans)-NH2 (SEQ ID NO: 8); (Dabcyl—4-((4-(dimethylamino)phenyl)azo)benzoic acid; Edans—5-[(2-Aminoethyl) amino]naphthalene-1-sulfonyl; custom synthesis by Jerini Peptide Technologies, Berlin) in the reaction buffer. The microtiter plate was incubated for 60-120 min at the temperature of 32 C. The increase of fluorescence intensity was measured in appropriate fluorescence plate reader (e.g. TECAN Ultra) using excitation wavelength of 340 nm and emission wavelength of 490 nm. IC50 values were calculated from percentage of inhibition of rat […] activity as a function of test compound concentration.

The target of another experiment is T3, human MASP2 (Homo sapiens, UniProt O00187).
T3 construct: Ig-kappa secretion signal (N, cleaved yes); made in house; host or cells: HEK293 (ATCC No. CRL-1573)
Kind of experiment: Biochemical human MASP2 assay (FRET substrate). The settings on record: average IC50.
From the text: as §1, §2
2.3 Biochemical Human MASP2 Assay
as §3, with “MASP2” for “MASP1”, “340” for “320”, “490” for “420”

T3 sequence (O00187 297-444): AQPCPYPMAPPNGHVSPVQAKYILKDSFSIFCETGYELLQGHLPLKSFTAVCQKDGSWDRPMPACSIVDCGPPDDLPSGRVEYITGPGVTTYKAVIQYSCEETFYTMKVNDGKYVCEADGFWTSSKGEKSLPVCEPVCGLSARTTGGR
T3 sequence (O00187 445-686): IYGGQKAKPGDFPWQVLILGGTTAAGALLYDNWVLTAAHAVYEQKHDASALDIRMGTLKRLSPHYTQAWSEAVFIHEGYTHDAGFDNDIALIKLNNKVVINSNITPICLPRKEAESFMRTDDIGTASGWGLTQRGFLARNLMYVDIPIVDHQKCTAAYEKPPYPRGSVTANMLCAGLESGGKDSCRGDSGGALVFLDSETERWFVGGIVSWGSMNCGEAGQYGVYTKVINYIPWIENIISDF

As for `CC[C@H](C)[C@H](NC(=O)[C@H](C)NC)C(=O)N[C@H]1CSSC(C)(C)[C@@H](C(=O)N[C@H](C(=O)N2CCC[C@H]2C(N)=O)[C@@H](C)CC)NC(=O)[C@H]([C@@H](C)CC)NC(=O)[C@@H]2C[C@@]3(CN2C(=O)[C@@H]2CCCN2C(=O)[C@@H](CC(C)(C)C)NC(=O)[C@H](CO)NC(=O)[C@H](CCCNC(=N)N)NC(=O)[C@H](CO)NC1=O)CC3(F)F` (single isomer, unassigned; enantiomer 1) [Example 443], the concentration for half-maximal inhibition (IC50) (commonly the concentration at which inhibition is half-maximal) was 0.78 nM against human MASP1, 29 nM at rat MASP1 and 74 nM against human MASP2.
For the compound `CC[C@H](C)[C@H](NC(=O)CNC)C(=O)N[C@H]1CSSC(C)(C)[C@@H](C(=O)N[C@H](C(=O)N2CCC[C@H]2C(N)=O)[C@@H](C)CC)NC(=O)[C@H]([C@@H](C)CC)NC(=O)[C@@H]2C[C@@H]3CCCC[C@@H]3C2C(=O)[C@@H]2CCCN2C(=O)[C@H](CC(C)C)NC(=O)[C@H](CO)NC(=O)[C@H](CCCNC(=N)N)NC(=O)[C@H](CO)NC1=O` (stereo partly drawn) [Example 67, ((N-Me)G)-IC+SRSLP-(Oic)-I-(Pen)+IP-NH2 (HCl Salt)] (H-[Sar]ICSRSL[X1]I[Pen]IP-NH2; disulfide 3-10), the 50% inhibitory concentration (IC50) against human MASP1 was found to be 2.2 nM; on rat MASP1, 72 nM; on human MASP2, 43 nM.
The corresponding values for `CC[C@H](C)[C@H](NC(=O)CNC)C(=O)N[C@H]1CSSC(C)(C)[C@@H](C(=O)N[C@H](C(=O)N2CCC[C@H]2C(N)=O)[C@@H](C)CC)NC(=O)[C@H]([C@@H](C)CC)NC(=O)[C@@H]2C[C@@H]3CCCC[C@@H]3N2C(=O)[C@@H]2CCCN2C(=O)[C@H](CC(C)C)NC(=O)[C@H](CO)NC(=O)[C@H](CCCNC(=N)N)NC(=O)[C@H](CO)NC1=O` [Example 109, ((N-Me)G)-IC+SRSLP-(Oic)-I-(Pen)+IP-NH2] (H-[Sar]ICSRSLP[Oic]I[Pen]IP-NH2; disulfide 3-11) are 2.9 nM, 76 nM and 69.6 nM.
Regarding `[2H][C@@H]1[C@H]([2H])CN2C(=O)[C@H](CC(C)C)NC(=O)[C@H](CO)NC(=O)[C@H](CCCNC(=N)N)NC(=O)[C@H](CO)NC(=O)[C@@H](NC(=O)[C@@H](NC(=O)[C@H](C)N)[C@@H](C)CC)CSSC(C)(C)[C@@H](C(=O)N[C@H](C(=O)N3CCC[C@H]3C(=O)N[C@@H](CC(=O)O)C(=O)O)[C@@H](C)CC)NC(=O)[C@H]([C@@H](C)CC)NC(=O)[C@@H]3C[C@@H]4CCCC[C@@H]4N3C(=O)[C@H]12` [Example 142, N-[(1R,2S,6S,9S,12S,15S,18R,23R,26S,28aS,35aS)-18-[(L-alanyl-L-isoleucyl)amino]-26-[(2S)-butan-2-yl]-12-(3-carbamimidamidopropyl)-9,15-bis(hydroxymethyl)-22,22-dimethyl-6-(2-methylpropyl)-5,8,11,14,17,25,28,35-octaoxo(1,2-^2H2)dotriacontahydro-1H,5H,22H-pyrrolo[2′,1′:13,14][1,2,5,8,11,14,17,20,23,26]dithiaoctaazacyclononacosino[11,10-a]indole-23-carbonyl]-L-isoleucyl-L-prolyl-L-aspartic Acid], the figures for the half-maximal inhibitory concentration (IC50) against human MASP1, at rat MASP1 and against human MASP2 were 2.13 nM, 10.9 nM and 126 nM, respectively.
In the case of `CC[C@H](C)[C@H](NC(=O)[C@H](C)N)C(=O)N[C@H]1CSSC[C@@H](C(=O)N[C@H](C(=O)N2CCC[C@H]2C(=O)N[C@@H](CC(=O)O)C(N)=O)[C@@H](C)CC)N(C)C(=O)[C@H]([C@@H](C)CC)NC(=O)[C@@H]2C[C@@H]3CCCC[C@@H]3N2C(=O)[C@@H]2CCCN2C(=O)[C@H](CC(C)C)NC(=O)[C@H](CO)NC(=O)[C@H](CCCNC(=N)N)NC(=O)[C@H](CO)NC1=O` [Example 185, AIC+SRSLP-(Oic)-I-((N-Me)C)+IPD-NH2], the figures for the 50% inhibitory concentration (IC50) at human MASP1, on rat MASP1 and against human MASP2 were 4.8 nM, 57 nM and 245 nM, respectively.
For the compound `CC[C@H](C)[C@H](NC(=O)CNC)C(=O)N[C@H]1CSSC(C)(C)[C@@H](C(=O)N[C@H](C(=O)N2CCC[C@H]2C(=O)N[C@@H](CC(=O)O)C(=O)N[C@@H](CC(=O)O)C(=O)O)[C@@H](C)CC)NC(=O)[C@H]([C@@H](C)CC)NC(=O)[C@@H]2C[C@@H]3CCCC[C@@H]3N2C(=O)[C@@H]2CCCN2C(=O)[C@H](CC(C)C)NC(=O)[C@H](CO)NC(=O)[C@H](CCCNC(=N)N)NC(=O)[C@H](CO)NC1=O` [Example 466, ((N-Me)G)-IC+SRSLP-(Oic)-I-(Pen)+IPDD-OH] (H-[Sar]ICSRSLP[Oic]I[Pen]IPDD-OH; disulfide 3-11), the IC50 turned out to be 0.72 nM against human MASP1, 17.6 nM on rat MASP1 and 40 nM on human MASP2.
On to `CC[C@H](C)[C@H](NC(=O)CNC)C(=O)N[C@H]1CSSC(C)(C)[C@@H](C(=O)N[C@H](C(=O)N2CCC[C@H]2C(=O)NC[C@H](N)C(=O)O)[C@@H](C)CC)NC(=O)[C@H]([C@@H](C)CC)NC(=O)[C@@H]2C[C@@H]3CCCC[C@@H]3N2C(=O)[C@@H]2CCCN2C(=O)[C@H](CC(C)C)NC(=O)[C@H](CO)NC(=O)[C@H](CCCNC(=N)N)NC(=O)[C@H](CO)NC1=O` [Example 467] (H-[Sar]ICSRSLP[Oic]I[Pen]IP-X2; disulfide 3-11), for which the figures for the half-inhibitory concentration (IC50) against human MASP1, at rat MASP1 and on human MASP2 were 6.6 nM, 170 nM and 55 nM, respectively.
